# Source: patent publication US20250213563A1, “SUBSTITUTED PYRIMIDIN-4(3H)-ONES FOR USE IN TREATING CANCER” (NAVIRE PHARMA, INC., priority 2021, published 2025)
# Where two headings read alike, the source gives them in different places.
# Columns and labels:
# [1] = test system: HCC827 cell line-derived xenograft (CDX) model; assay: Monotherapy anti-tumor activity, HCC827 CDX model; assay type: in vivo; conditions: for tumor growth inhibition (TGI): day 1 to day 28
# Protocol: An in vivo efficacy study was conducted to evaluate the monotherapy anti-tumor activity of Compound (10b) in female BALB/c nude mice bearing the non-small cell lung cancer (NSCLC) HCC827 cell line-derived xenograft (CDX) model, which harbors an EGFR exon 19 deletion (EGFR^ex19del) and EGFR amplification (EGFRamp). Mice (n=10 per group) were dosed daily orally with the indicated levels of Compound (10b) from day 1 to day 28, and a dose dependent reduction in tumor volume was observed. […] All groups dosed QD, PO Two-way mixed-effects ANOVA: *p<0.0001 vs vehicle.
# (§1) In vivo efficacy studies were conducted to evaluate the monotherapy anti-tumor activity of Compound (10b) across a panel of cell line-derived xenograft (CDX) models. […] Significant anti-tumor efficacy was also observed in two CDX models with acquired resistance to EGFR inhibitors.
# [2] = Single oral dose exposure in NOD/SCID mice; assay type: in vivo; conditions: male, mouse; for Kp at 24 h: brain; for AUC(0-inf) / Cmax: plasma
# Protocol: Male NOD/SCID mice (n=3 per group) were administered a single dose of Compound (10b) at 1, 3, 10, 30, and 100 mg/kg by oral gavage. Plasma was collected at 0.25, 1, 2, 4, 8, and 24 hours after each dose, and brains were collected at 24 hours after each dose. Compound (10b) concentrations were determined with LC-MS/MS.
# [3] = Single-dose pharmacokinetics, summary across species; assay type: in vivo; conditions: both sexes, CD-1, C57BL/6, Sprague Dawley, Beagle, mouse, rat, dog, monkey, plasma
# Protocol: (§2) The pharmacokinetic (PK) parameters of Compound (10b) (freebase) were determined following single intravenous (IV) and oral (PO) administration in female CD-1 mouse, female C57BL/6 mouse (PO only), male Sprague Dawley rat, male Beagle dog, and male Cynomolgus monkey. Additional evaluation of the PK properties of Compound (10b) was obtained following single dose PO administration in female CD-1 mouse, male Sprague Dawley rat and male Beagle dog over a dose range spanning 10 to 300 mg/kg (mouse and rat) and 1 to 100 mg/kg (dog). The intravenous dose solutions were prepared in 20% DMSO-60% PEG400-20% water and the oral dose solutions as suspensions in 0.5% methylcellulose in water, unless otherwise noted. Plasma concentration profiles were generated from serial sampling in individual animals up to 24 hours post dose, except for the studies in mice where composite sampling methods were used (i.e. 3 sampling times per mouse; 9 mice per group). […] Exposures increased with increasing dose level across species, in a dose-proportional manner in mouse and dog, and in a greater than dose-proportional manner in rat (80× increase in AUC with a 30× increase in dosage).
# [4] = Single-dose pharmacokinetics, Beagle dog; assay type: in vivo, male); conditions: free base; for AUC(0-t): read-out: AUC0→24
# Protocol: as §2
# [5] = test system: panel of 419 human kinases; assay: KINOMEscan competition binding panel; conditions: 1 μM; 419 kinases tested
# Protocol: Activity of Compound (10b) (1 μM) was assessed against a panel of 419 human kinases (including a set of disease-relevant mutant variants). Assays were conducted using the KINOMEscan™ platform from DiscoverX which measures compound interaction with kinases using active site-directed competition binding assays. Displacement of ligand binding to the kinase by <35% of the control value is considered significant. Of the 419 kinases tested, only 4 kinases reached this level of displacement: Protein kinase C eta (PRKCH), 34% control; Large tumor suppressor kinase 1 (LATS1), 32% control; General control nonderepressible 2 kinase (GCN2), 21% control; and Hematopoietic Progenitor Kinase 1 (HPK1), 4.4% control.
# [6] = Single-dose pharmacokinetics, C57BL/6 mouse; assay type: in vivo, mouse (C57BL/6; conditions: female, plasma, oral 10 mg/kg, free base
# Protocol: as §2
# [7] = Monotherapy studies across panel of CDX models, tolerability; assay type: in vivo, immunocompromised mice; conditions: 100 mg/kg daily orally, 21 to 33 days, all CDX models
# Protocol: as §1
# [8] = male, Beagle, dog, plasma, IV 1 mg/kg
# [9] = male, Beagle, dog, plasma, oral 10 mg/kg
structure (smiles),measurement,setting,value
"Cc1c(N2CCC3(CC2)CO[C@@H](C)[C@H]3N)nc(C)n(-c2cccc(Cl)c2Cl)c1=O (atropisomer, axis not shown; (Ra)) [Compound (10b), 6-((3S,4S)-4-amino-3-methyl-2-oxa-8-azaspiro[4.5]decan-8-yl)-3-(Ra)-(2,3-dichlorophenyl)-2,5-dimethylpyrimidin-4(3H)-one]",tumor growth inhibition (TGI),[1]; 3 mg/kg QD PO,41%
same,tumor growth inhibition (TGI),[1]; 10 mg/kg QD PO,84%
same,tumor growth inhibition (TGI),[1]; 30 mg/kg QD PO,98%
same,mean tumor regression,[1]; 100 mg/kg QD PO,60%
same,impact of treatment on body weight,[1]; 3-100 mg/kg QD PO,no impact
same,tolerability,[1]; 3-100 mg/kg QD PO,well tolerated
same,ED90,[1]; QD PO,10 mg/kg
same,Kp at 24 h,"[2]; oral, mean over doses 1-100 mg/kg, read-out: mean total brain/plasma level at 24 hours",0.33
same,Kp at 24 h,"[2]; single oral dose 1 mg/kg, read-out: total brain/plasma levels at 24 hours",0.35
same,Kp at 24 h,"[2]; single oral dose 3 mg/kg, read-out: total brain/plasma levels at 24 hours",0.31
same,Kp at 24 h,"[2]; single oral dose 10 mg/kg, read-out: total brain/plasma levels at 24 hours",0.3
same,Kp at 24 h,"[2]; single oral dose 30 mg/kg, read-out: total brain/plasma levels at 24 hours",0.31
same,Kp at 24 h,"[2]; single oral dose 100 mg/kg, read-out: total brain/plasma levels at 24 hours",0.37
same,AUC(0-inf),[2]; single oral dose 1 mg/kg,1030 ng·h/mL
same,Cmax,[2]; single oral dose 1 mg/kg,160 ng/mL
same,AUC(0-inf),[2]; single oral dose 3 mg/kg,3530 ng·h/mL
same,Cmax,[2]; single oral dose 3 mg/kg,507 ng/mL
same,AUC(0-inf),[2]; single oral dose 10 mg/kg,13000 ng·h/mL
same,Cmax,[2]; single oral dose 10 mg/kg,2030 ng/mL
same,AUC(0-inf),[2]; single oral dose 30 mg/kg,30600 ng·h/mL
same,Cmax,[2]; single oral dose 30 mg/kg,4870 ng/mL
same,AUC(0-inf),[2]; single oral dose 100 mg/kg,123000 ng·h/mL
same,Cmax,[2]; single oral dose 100 mg/kg,13900 ng/mL
same,Tmax,[3]; oral 1-100 mg/kg,0.25 to 3.67 h
same,bioavailability,"[3]; oral doses 3- to 30-fold higher than intravenous doses, read-out: apparent oral bioavailabilities",51.2 to 115%
same,half-life,[4]; [8],8.23 h
same,AUC(0-t),[4]; [8],3.91 µM·h
same,clearance,"[4]; male, Beagle, dog, plasma, IV 1 mg/kg, read-out: Clp (converted)",8.5 mL/min/kg
same,Vd,"[4]; male, Beagle, dog, plasma, IV 1 mg/kg, read-out: Vdss",5.46 L/kg
same,Cmax,[4]; [9],6.37 µM
same,Tmax,[4]; [9],0.83 h
same,AUC(0-t),[4]; [9],48.2 µM·h
same,F,[4]; oral 10 mg/kg,115%
same,number of kinases with displacement <35% of control,[5],4
same,Cmax,[6],5.4 µM
same,Tmax,[6],1 h
same,AUC(0-t),[6]; read-out: AUC0→24,39 µM·h
same,impact of treatment on body weight,[7],no impact
same,tolerability,[7],well tolerated
